In ChEMBL document CHEMBL4373655, “Aminopyrimidine-galactose hybrids are highly selective galectin-3 inhibitors” (Medchemcomm, 2019):

Experiments:
[1] = Solubility of the compound in DMSO at >[…] uM; format: physicochemical
[2] = Solubility of the compound in DMSO up to 900 uM; format: physicochemical

solubility [1]	solubility [2]	Compound
Insoluble	Soluble	CO[C@@H]1O[C@H](CO)[C@H](O)[C@H](OCc2cc(-c3ccc(C(C)(C)C)cc3)nc(N)n2)[C@H]1O
Insoluble	Soluble	CO[C@@H]1O[C@H](CO)[C@H](O)[C@H](OCc2cc(-c3ccccc3)nc(N)n2)[C@H]1O
Insoluble	Soluble	CO[C@@H]1O[C@H](CO)[C@H](O)[C@H](OCc2cc(-c3ccc(-c4ccccc4)cc3)nc(N)n2)[C@H]1O
Insoluble	Soluble	CO[C@@H]1O[C@H](CO)[C@H](O)[C@H](OCc2cc(-c3cccc(Cl)c3)nc(N)n2)[C@H]1O
Insoluble	Soluble	CO[C@@H]1O[C@H](CO)[C@H](O)[C@H](OCc2cc(-c3ccc(Cl)cc3)nc(N)n2)[C@H]1O
Insoluble	Soluble	CO[C@@H]1O[C@H](CO)[C@H](O)[C@H](OCc2cc(-c3cccc(-c4ccccc4)c3)nc(N)n2)[C@H]1O
Insoluble	Soluble	CO[C@@H]1O[C@H](CO)[C@H](O)[C@H](OCc2cc(-c3ccc(Br)cc3)nc(N)n2)[C@H]1O
Insoluble	Soluble	CO[C@@H]1O[C@H](CO)[C@H](O)[C@H](OCc2cc(-c3ccc(C)cc3)nc(N)n2)[C@H]1O
Insoluble	Soluble	CO[C@@H]1O[C@H](CO)[C@H](O)[C@H](OCc2cc(-c3ccccc3F)nc(N)n2)[C@H]1O
Insoluble	Soluble	CO[C@@H]1O[C@H](CO)[C@H](O)[C@H](OCc2cc(-c3ccc4ccccc4c3)nc(N)n2)[C@H]1O
Insoluble	Soluble	CO[C@@H]1O[C@H](CO)[C@H](O)[C@H](OCc2cc(-c3ccc(F)cc3)nc(N)n2)[C@H]1O
Insoluble	Soluble	CO[C@@H]1O[C@H](CO)[C@H](O)[C@H](OCc2cc(-c3cccc4ccccc34)nc(N)n2)[C@H]1O
Insoluble	Soluble	CO[C@@H]1O[C@H](CO)[C@H](O)[C@H](OCc2cc(-c3cccc(C)c3)nc(N)n2)[C@H]1O
Insoluble	Soluble	CO[C@@H]1O[C@H](CO)[C@H](O)[C@H](OCc2cc(-c3cccc(F)c3)nc(N)n2)[C@H]1O
